Experimental data: patent publication US10851098B2, “Azole amides and amines as alpha v integrin inhibitors” (BRISTOL-MYERS SQUIBB COMPANY, priority 2016, dated 2020)

biological target: T1, human αVβ6 (Homo sapiens, UniProt P06756+P18564); assay: human αVβ6 HTRF binding assay
T1 construct: purchased R & D systems 3817-AV
Description: All binding assays used the HTRF (homogeneous time resolved fluorescence) technology from Cisbio International, therefore all assays are described as HTRF binding assays. The assay results for the Examples are listed above together with the characterization data. The HTRF binding assays are established for the following integrins: human αVβ6, human αVβ1, human αVβ3, human αVβ5, and human αVβ8. All assays used the following assay buffer: 20 mM Tris, pH 7.4, 1 mM MgCl2, 1 mM MnCl2, 0.01% Tween 20, and 0.01% BSA. Alternatively, a SPA-based assay was used for evaluation of receptor binding.
[…]

T1 sequence (P06756 31-992 limits assumed): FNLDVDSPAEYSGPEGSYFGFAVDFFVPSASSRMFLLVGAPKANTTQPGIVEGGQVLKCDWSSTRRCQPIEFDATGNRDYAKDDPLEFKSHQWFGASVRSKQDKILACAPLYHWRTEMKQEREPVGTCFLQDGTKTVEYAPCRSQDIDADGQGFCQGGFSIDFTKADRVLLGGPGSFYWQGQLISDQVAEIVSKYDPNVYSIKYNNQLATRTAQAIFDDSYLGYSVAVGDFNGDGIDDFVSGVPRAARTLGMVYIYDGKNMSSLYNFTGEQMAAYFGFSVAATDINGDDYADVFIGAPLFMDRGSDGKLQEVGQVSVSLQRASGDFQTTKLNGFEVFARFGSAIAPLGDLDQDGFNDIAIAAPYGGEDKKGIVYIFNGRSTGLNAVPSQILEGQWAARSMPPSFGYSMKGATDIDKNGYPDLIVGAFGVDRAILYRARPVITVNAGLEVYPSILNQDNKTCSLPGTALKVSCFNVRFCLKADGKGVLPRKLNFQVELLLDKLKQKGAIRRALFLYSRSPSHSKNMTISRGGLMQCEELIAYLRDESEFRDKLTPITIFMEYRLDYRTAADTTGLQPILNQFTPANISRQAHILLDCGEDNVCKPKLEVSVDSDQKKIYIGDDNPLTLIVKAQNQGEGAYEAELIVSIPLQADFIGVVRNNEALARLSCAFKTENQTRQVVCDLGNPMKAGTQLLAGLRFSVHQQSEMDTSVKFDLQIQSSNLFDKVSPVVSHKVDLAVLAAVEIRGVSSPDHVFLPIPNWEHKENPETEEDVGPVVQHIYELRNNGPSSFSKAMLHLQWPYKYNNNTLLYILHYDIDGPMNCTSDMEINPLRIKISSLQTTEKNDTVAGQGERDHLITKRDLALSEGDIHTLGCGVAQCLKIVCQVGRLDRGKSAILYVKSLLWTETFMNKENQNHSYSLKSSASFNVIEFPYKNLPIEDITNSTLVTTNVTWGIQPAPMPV
T1 sequence (P18564 22-707 limits assumed): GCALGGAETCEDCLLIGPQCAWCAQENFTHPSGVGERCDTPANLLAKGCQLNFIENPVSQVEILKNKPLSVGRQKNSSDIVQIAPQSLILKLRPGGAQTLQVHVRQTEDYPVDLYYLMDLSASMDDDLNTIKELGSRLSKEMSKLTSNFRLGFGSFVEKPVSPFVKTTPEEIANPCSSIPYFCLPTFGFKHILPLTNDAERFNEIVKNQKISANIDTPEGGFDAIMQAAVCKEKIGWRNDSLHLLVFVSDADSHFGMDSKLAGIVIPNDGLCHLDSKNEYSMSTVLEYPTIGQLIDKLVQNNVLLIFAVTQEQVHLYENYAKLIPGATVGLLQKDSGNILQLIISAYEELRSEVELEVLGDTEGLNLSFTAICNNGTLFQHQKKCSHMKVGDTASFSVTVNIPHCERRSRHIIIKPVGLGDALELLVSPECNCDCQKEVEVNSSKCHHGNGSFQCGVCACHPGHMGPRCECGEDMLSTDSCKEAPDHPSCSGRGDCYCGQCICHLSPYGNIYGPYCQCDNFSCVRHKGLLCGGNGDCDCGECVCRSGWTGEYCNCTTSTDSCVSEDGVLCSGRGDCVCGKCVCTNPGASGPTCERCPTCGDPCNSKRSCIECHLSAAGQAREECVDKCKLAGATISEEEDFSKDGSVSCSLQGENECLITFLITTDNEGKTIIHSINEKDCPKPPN

| Structure (SMILES) | IC50 |
| --- | --- |
| CC(C)CC(CC(=O)O)NC(=O)c1cnn(CCc2ccc3c(n2)NCCC3)c1 (stereo not drawn) [Example 89] | 0.399 µM |
| CN(C(=O)c1cnn(CCc2ccc3c(n2)NCCC3)c1)[C@H](CC(=O)O)c1cc(Cl)cc(Cl)c1 [Example 93] | 0.446 µM |
| N#Cc1cccc(C(CC(=O)O)NC(=O)c2cnn(CCc3ccc4c(n3)NCCC4)c2CO)c1 (stereo not drawn) [Example 53] | 0.03 µM |
| Cc1ccc(Oc2cccc(C(CC(=O)O)NC(=O)c3cnn(CCc4ccc5c(n4)NCCC5)c3COC(C)(C)C)c2)cc1 (stereo not drawn) [Example 23] | 0.0023 µM |
| COc1ccc([C@H](CC(=O)O)NC(=O)c2cnn(CCc3ccc4c(n3)NCCC4)c2CO)cc1F [Example 33] | 0.0094 µM |
| O=C(O)C[C@H](NC(=O)c1cnn(CCc2ccc3c(n2)NCCC3)c1CO)c1cc(Cl)cc(Cl)c1 [Example 29] | 0.0064 µM |
| CC(C)(C)OCc1c(C(=O)NC(CC(=O)O)c2cccc(-n3cccc3)c2)cnn1CCc1ccc2c(n1)NCCC2 (stereo not drawn) [Example 34] | 0.01 µM |
| COc1ccc([C@H](CC(=O)O)NC(=O)c2cnn(Cc3ccc4c(n3)NCCC4)c2)cn1 [Example 102] | 1.98 µM |
| Cc1ccc(C(CC(=O)O)NC(=O)c2cnn(CCc3ccc4c(n3)NCCC4)c2CO)cc1 (stereo not drawn) [Example 66] | 0.091 µM |
| O=C(O)CCNCc1cnn(CCc2ccc3c(n2)NCCC3)c1 [Example 175, 3-(((1-(2-(5,6,7,8-Tetrahydro-1,8-naphthyridin-2-yl)ethyl)-1H-pyrazol-4-yl)methyl)amino)propanoic acid] | 0.272 µM |
| O=C(O)CC(NC(=O)c1cnn(CCc2ccc3c(n2)NCCC3)c1CO)c1cccc(Cl)c1 (stereo not drawn) [Example 9, 3-(3-Chlorophenyl)-3-(5-(hydroxymethyl)-1-(2-(5,6,7,8-tetrahydro-1,8-naphthyridin-2-yl)ethyl)-1H-pyrazole-4-carboxamido)propanoic acid] | 0.022 µM |
| O=C(O)CC(NC(=O)c1cnn(CCc2ccc3c(n2)NCCC3)c1CO)c1cccc(C(F)(F)F)c1 (stereo not drawn) [Example 44] | 0.016 µM |
| CCN(C(=O)c1cnn(CCc2ccc3c(n2)NCCC3)c1)C(CC(C)=O)c1cc(Cl)cc(Cl)c1 (stereo not drawn) [Example 104] | 3.81 µM |
| CC(C)(C)OCc1nn(CCc2ccc3c(n2)NCCC3)cc1C(=O)NC(CC(=O)O)c1cc(Cl)cc(Cl)c1 (stereo not drawn) [Example 3] | 0.312 µM |
| Cc1cccc(C(CC(=O)O)NC(=O)c2cnn(CCc3ccc4c(n3)NCCC4)c2CO)c1 (stereo not drawn) [Example 55] | 0.032 µM |
| O=C(O)CC(NC(=O)c1cnn(CCc2ccc3c(n2)NCCC3)c1CO)c1cccc(OC(F)(F)F)c1 (stereo not drawn) [Example 36] | 0.011 µM |
| O=C(O)CC(NC(=O)c1cnn(CCc2ccc3c(n2)NCCC3)c1)c1ccc2c(c1)OCO2 (stereo not drawn) [Example 56] | 0.037 µM |
| Cc1cc(C)n(-c2cccc(C(CC(=O)O)NC(=O)c3cnn(CCc4ccc5c(n4)NCCC5)c3COC(C)(C)C)c2)n1 (stereo not drawn) [Example 37] | 0.012 µM |
| O=C(O)CC(NC(=O)c1cnn(CCc2ccc3c(n2)NCCC3)c1CO)c1ccccc1Cl (stereo not drawn) [Example 103] | 2.6 µM |
| COc1ccc([C@H](CC(=O)O)NC(=O)c2cnn(CCc3ccc4c(n3)NCCC4)c2CO)cn1 [Example 43] | 0.016 µM |
| COc1ccc([C@H](CC(=O)O)NC(=O)c2cnn(CCc3ccc4c(n3)NCCC4)c2COC(C)(C)C)cc1F [Example 50] | 0.026 µM |

Now from value to compound:

| IC50 | Structure (SMILES) |
| --- | --- |
| 0.0021 µM | CCCCCS(=O)(=O)N[C@@H](CNC(=O)c1cnn(CCc2ccc3c(n2)NCCC3)c1)C(=O)O [Example 144] |
| 0.03 µM | COc1ccc([C@H](CC(=O)O)NC(=O)c2cn(CCc3ccc4c(n3)NCCC4)nc2C)cc1F [Example 54] |
| 0.0055 µM | O=C(N[C@@H](CNC(=O)c1cnn(CCc2ccc3c(n2)NCCC3)c1)C(=O)O)OCCF [Example 170] |
| 0.0086 µM | O=C(NC[C@H](NS(=O)(=O)Cc1ccc(OC(F)(F)F)cc1)C(=O)O)c1cnn(CCc2ccc3c(n2)NCCC3)c1 [Example 146] |
| 0.321 µM | O=C(NCC(C(=O)O)c1ccccc1)c1cnn(CCc2ccc3c(n2)NCCC3)c1 (stereo not drawn) [Example 85] |
| 0.0062 µM | O=C(NC[C@H](NS(=O)(=O)Cc1cccc(Cl)c1)C(=O)O)c1cnn(CCc2ccc3c(n2)NCCC3)c1 [Example 163] |
| 0.0022 µM | CC#CCOC(=O)N[C@@H](CNC(=O)c1cnn(CCc2ccc3c(n2)NCCC3)c1)C(=O)O [Example 162] |
| 0.0045 µM | Cc1cc(C)c(S(=O)(=O)N[C@@H](CNC(=O)c2cnn(CCCNC3=NCC(O)CN3)c2)C(=O)O)c(C)c1 (stereo partly drawn) [Example 172] |
| 0.0073 µM | O=C(O)CC(NC(=O)c1cnn(CCc2ccc3c(n2)NCCC3)c1)c1cc(Cl)cc(Cl)c1 (stereo not drawn) [Example 30] |
| 0.0039 µM | CC(C)CS(=O)(=O)N[C@@H](CNC(=O)c1cnn(CCc2ccc3c(n2)NCCC3)c1)C(=O)O [Example 145] |
| 0.014 µM | O=C(NC[C@H](NS(=O)(=O)Cc1ccccc1)C(=O)O)c1cnn(CCc2ccc3c(n2)NCCC3)c1 [Example 125] |
| 0.013 µM | N#Cc1cccc(CS(=O)(=O)N[C@@H](CNC(=O)c2cnn(CCc3ccc4c(n3)NCCC4)c2)C(=O)O)c1 [Example 169] |
| 0.0026 µM | CCCCS(=O)(=O)N[C@@H](CNC(=O)c1cnn(CCc2ccc3c(n2)NCCC3)c1)C(=O)O [Example 124] |
| 0.112 µM | Cc1nn(CCc2ccc3c(n2)NCCC3)cc1C(=O)NC(CC(=O)O)c1cc(Cl)cc(Cl)c1 (stereo not drawn) [Example 70] |
| 1.1 µM | COC(=O)C[C@H](NC(=O)c1cnn(CCc2ccc3c(n2)NCCC3)c1)c1cc(Br)cc(C(C)(C)C)c1 [Example 96] |
| 0.0036 µM | O=C(NC[C@H](NS(=O)(=O)Cc1ccc(Cl)c(Cl)c1)C(=O)O)c1cnn(CCc2ccc3c(n2)NCCC3)c1 [Example 141] |
| 0.043 µM | Cc1cc(C)c(S(=O)(=O)N[C@@H](CNC(=O)c2ccn(Cc3cc4c(nc3C)NCCC4)c2)C(=O)O)c(C)c1 [Example 122] |
| 0.0042 µM | O=C(O)C[C@H](NC(=O)c1cnn(CCc2ccc3c(n2)NCCC3)c1)c1cc(Cl)cc(Cl)c1 [Example 16, (S)-3-(3,5-Dichlorophenyl)-3-(1-(2-(5,6,7,8-tetrahydro-1,8-naphthyridin-2-yl)ethyl)-1H-pyrazole-4-carboxamido)propanoic acid] |
| 0.0076 µM | CN(C(=O)c1cnn(CCc2ccc3c(n2)NCCC3)c1)C(CC(=O)O)c1cc(Cl)cc(Cl)c1 (stereo not drawn) [Example 32] |
| 0.0012 µM | O=C(NC[C@H](NS(=O)(=O)CCN1C(=O)c2ccccc2C1=O)C(=O)O)c1cnn(CCc2ccc3c(n2)NCCC3)c1 [Example 151] |
| 0.0082 µM | O=C(NC[C@H](NS(=O)(=O)Cc1cccc(F)c1)C(=O)O)c1cnn(CCc2ccc3c(n2)NCCC3)c1 [Example 142] |
| 0.016 µM | O=C(NC[C@H](NS(=O)(=O)Cc1cccc(C(F)(F)F)c1)C(=O)O)c1cnn(CCc2ccc3c(n2)NCCC3)c1 [Example 154] |
| 0.0026 µM | C=CCOC(=O)N[C@@H](CNC(=O)c1cnn(CCc2ccc3c(n2)NCCC3)c1)C(=O)O [Example 133] |
| 0.005 µM | CC(C)(C)c1cc(Br)cc([C@H](CC(=O)O)NC(=O)c2cnn(CCc3ccc4c(n3)NCCC4)c2CO)c1 [Example 26] |
| 4.31 µM | CCOC(=O)C[C@H](NC(=O)c1cnn(CCc2ccc3c(n2)NCCC3)c1)c1cc(Br)cc(C(C)(C)C)c1 [Example 106] |
| 0.021 µM | O=C(NC[C@H](NS(=O)(=O)Cc1cccc(Br)c1)C(=O)O)c1cnn(CCc2ccc3c(n2)NCCC3)c1 [Example 156] |
| 0.017 µM | O=C(NC[C@H](NS(=O)(=O)Cc1ccc(F)cc1)C(=O)O)c1cnn(CCc2ccc3c(n2)NCCC3)c1 [Example 168] |
